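In this assay, cells in 96-well plates receive the compound at five concentrations for 48 hours. Endpoints are linearly interpolated between the surrounding concentrations. Definition used: TGI = concentration required for complete inhibition of growth.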
Experiments:
Assay in all cases: DTP human tumour cell line panel, 48 h
[1] = test system: 786-0 renal
[2] = test system: A498 renal
[3] = test system: A549 NSCLC
[4] = test system: ACHN renal
[5] = test system: BT-549 breast
[6] = test system: CAKI-1 renal
[7] = test system: CCRF-CEM leukemia
[8] = test system: COLO 205 colon
[9] = test system: DU-145 prostate
[10] = test system: EKVX NSCLC
[11] = test system: HCC-2998 colon
[12] = test system: HCT-116 colon
[13] = test system: HCT-15 colon
[14] = test system: HL-60(TB) leukemia
[15] = test system: HOP-62 NSCLC
[16] = test system: HOP-92 NSCLC
[17] = test system: HS 578T breast
[18] = test system: HT29 colon
[19] = test system: IGROV1 ovarian
[20] = test system: K-562 leukemia
[21] = test system: KM12 colon
[22] = test system: LOX IMVI melanoma
[23] = test system: M14 melanoma
[24] = test system: MALME-3M melanoma
[25] = test system: MCF7 breast
[26] = test system: MDA-MB-231 breast
[27] = test system: MDA-MB-435
[28] = test system: MDA-N
[29] = test system: MOLT-4 leukemia
[30] = test system: NCI-H226 lung
[31] = test system: NCI-H23 lung
[32] = test system: NCI-H460 lung
[33] = test system: NCI-H522 lung
[34] = test system: NCI/ADR-RES ovarian
[35] = test system: OVCAR-3 ovarian
[36] = test system: OVCAR-4 ovarian
[37] = test system: OVCAR-5 ovarian
[38] = test system: OVCAR-8 ovarian
[39] = test system: PC-3 prostate
[40] = test system: RXF 393 renal
[41] = test system: SF-268 CNS
[42] = test system: SF-295 CNS
[43] = test system: SF-539 CNS
[44] = test system: SK-MEL-28 melanoma
[45] = test system: SK-MEL-5 melanoma
[46] = test system: SK-OV-3 ovarian
[47] = test system: SN12C renal
[48] = test system: SNB-19 CNS
[49] = test system: SNB-75 CNS
[50] = test system: SW-620 colon
[51] = test system: T-47D breast
[52] = test system: TK-10 renal
[53] = test system: U251 CNS
[54] = test system: UACC-257 melanoma
[55] = test system: UACC-62 melanoma
[56] = test system: UO-31 renal
[57] = test system: RPMI-8226 leukemia
[58] = test system: SK-MEL-2 melanoma
[59] = test system: SR leukemia

Measured: TGI

Cc1nc(N(C(C)C)C(C)C)c(C(C)C)o1
> 100 µM: [1] | [2] | [3] | [4] | [5] | [6] | [7] | [8] | [9] | [10] | [11] | [12] | [13] | [14] | [15] | [16] | [17] | [18] | [19] | [20] | [21] | [22] | [23] | [24] | [25] | [26] | [27] | [28] | [29] | [30] | [31] | [32] | [33] | [34] | [35] | [36] | [37] | [38] | [39] | [40] | [41] | [42] | [43] | [44] | [45] | [46] | [47] | [48] | [49] | [50] | [51] | [52] | [53] | [54] | [55] | [56]

CN1CCC/C1=C1/C(=O)N(c2ccccc2)N=C1c1ccc[nH]1
> 100 µM: [1] | [2] | [3] | [4] | [5] | [6] | [7] | [8] | [9] | [10] | [11] | [12] | [13] | [14] | [15] | [17] | [19] | [20] | [21] | [22] | [23] | [24] | [25] | [26] | [27] | [28] | [29] | [30] | [31] | [32] | [33] | [34] | [35] | [36] | [37] | [38] | [39] | [57] | [40] | [41] | [42] | [58] | [44] | [45] | [47] | [48] | [49] | [59] | [50] | [51] | [52] | [53] | [54] | [55] | [56]

C[C@H](NC(=O)CNC(=O)CCCCCC(=O)NCC(=O)N[C@@H](C)C(=O)OCc1ccccc1)C(=O)OCc1ccccc1
> 100 µM: [1] | [3] | [4] | [5] | [6] | [7] | [8] | [9] | [10] | [11] | [12] | [13] | [15] | [16] | [17] | [18] | [19] | [20] | [21] | [22] | [23] | [24] | [25] | [26] | [27] | [28] | [29] | [30] | [31] | [34] | [35] | [36] | [37] | [38] | [39] | [57] | [40] | [41] | [42] | [43] | [58] | [44] | [46] | [47] | [48] | [49] | [59] | [50] | [51] | [52] | [53] | [54] | [55]
